Data on one compound can be found in PMC8129133, “Polymer-free corticosteroid dimer implants for controlled and sustained drug delivery” (Nature Communications, 2021).

The nature of data set [1]: Shelf-life stability study (polarized light microscopy). The data set is classed as physicochemical. The conditions noted are these: extruded amorphous implants. As to the method:
Extruded Dex-TEG-Dex implants were assessed for shelf-life stability. Melt extruded Dex-TEG-Dex materials were packaged in the lumen of 30 G needles (BD) and stored in an anhydrous pouch containing desiccant. Samples were aged at 25 °C, 40 °C, and 70 °C for up to 4 months, corresponding to real-time aging of 126 days (25 °C, 4 months), 356 days (40 °C, 4 months), and 2851 days (70 °C, 4 months). At specified time points, samples were removed from their packaging and assessed by polarized light microscopy as outlined below.
Samples were placed on glass slides, cross-sectioned as needed and imaged with a polarizing light microscope (SM-LUX-POL, Leitz) equipped with a Leica EC4 digital camera (Leica) using LAS EZ v.3.2.0 software (Leica). Additionally, a λ-plate compensator was used to assist in evaluation of features with weak birefringence.

For data set [2] the following is noted: rabbit, in vivo.
Procedure: Analysis of samples was conducted using a SCIEX API 5000 mass spectrometer (Applied Biosystems/MDS Sciex), Shimadzu LC-20ADXR HPLC pumps, Shimadzu SCL-10A controller, and HTS-PAL autoinjector (CTC Analytics). Chromatography was performed using a Waters X-Bridge C-18 (3.5 µm; 100 × 2.1 mm) column equipped with a Phenomenex KrudKatcher ULTRA HPLC In-Line Filter (Part AF0-8497). The column was held at a temperature of 40 °C, while the autosampler compartment was maintained at 4 °C. Mobile phases consisted of: (A) 95:5 H2O:MeOH with 2 mM Ammonium Acetate (NH4OAc) and (B) 85:10:5 MeOH:H2O:MeCN with 2 mM NH4OAc. A gradient elution profile was employed, following the trend of: (0 min 30% B), (0.50 min 30% B), (2.50 min 65% B), (2.51 min 100% B), (4.50 min 100% B), (4.51 min 30% B), (6.50 min 30% B). Flow was constant at 0.6 mL min^-1 with an injection volume of 10 µL. For MS parameters, the system was operated in positive ion mode with a TurboIonSpray probe monitoring transitions (±0.2 AMU) of m/z 393.2 → 373.2 for Dex and 397.3 → 377.2 for the Dex-d4 deuterated internal standard. Analyst Version 1.4.2 (Applied Biosystems-MDS Sciex) was used for instrument control, data acquisition, and peak integrations, while calculations including peak area ratios, standard curve regressions, sample concentration values, and descriptive statistics were performed with the assistance of the ALIS2004 validated LIMS.
Dex and internal standard (Dex-d4) were extracted from vitreous humor on ice using protein precipitation. Samples were initially centrifuged at approximately 1500 rcf for 5 min to remove any interfering particulates. Stepwise, the protocol for extraction from vitreous humor was to (1) pipette 50 µL of vitreous humor into an extraction tube; (2) add 13 µL H2O and vortex to mix; (3) add 25 µL internal standard spiking solution (100 ng/mL Dex-d4 in a 1:1 solvent of MeOH:H2O); (4) add 25 µL of make-up reagent (1:1 mixture of MeOH:H2O); (5) vortex mix for 5-10 s at a speed setting of 4 or 5; (6) centrifuge at ~60 rcf for 2 min; (7) add 300 µL of 9:1 MeOH:5 mM NH4OAc at pH 7 to precipitate proteins; (8) cap and vortex mix at full speed for 2 min; (9) Centrifuge at approximately 2700 rcf for 5 min; (10) transfer 300 µL of supernatant to a separate tube; (11) vortex the collected supernatant for 30 s at a low to moderate speed; (12) centrifuge at ~1500 rcf for 5 min; (13) store prepared extract at 4 °C until analysis by LC-MS/MS.
Pharmacokinetics. […] Animals were anesthetized with ketamine (up to ~50 mg/kg) and xylazine (up to ~10 mg/kg). Eyes were surgically prepared before intravitreal procedures with 5% betadine and topical anesthetic eye drops (proparacaine hydrochloride, 0.5%). Prior to test article administration, pupils were dilated with topical application of one drop each of 10% phenylephrine and 1% tropicamide on each cornea.
Implants (30 G × 6 mm Dex-TEG-Dex extruded rods, Ozurdex®) were injected (30 G needle for Dex-TEG-Dex, 22 G needle for Ozurdex®) intravitreally into the eyes of New Zealand White rabbits (female, 1.5–2.5 kg) with terminal timepoints of 1 and 2 weeks and 1, 2, 3, 6, 9, 12, and 14 months. Ocular tissues and plasma were collected at each timepoint and analyzed for Dex by LC/MS/MS. Whole globe eyes were collected into centrifuge tubes and remained frozen for a minimum of 24 h before dissection and tissue collection. During dissection, vitreous humor containing any remaining test article was collected frozen into pre-weighed centrifuge tubes and stored at −80 °C until further processing.
A short description of data set [3]: Tolerability study of intravitreal implants (IOP, IR fundus imaging, histopathology). The data set is classed as in vivo. As to the method:
Tolerability study. The tolerability study was conducted at Absorption Systems California (San Diego, CA, USA) under the same animal care and ethics guidelines and approval systems as indicated above in the Pharmacodynamics section. […] Animals were anesthetized with intramuscular ketamine hydrochloride (30–32 mg/kg) and xylazine (5–10 mg/kg), with glycopyrrolate (0.01–0.02 mg/kg, intramuscular) administered concurrently. Eyes were prepped with 1–2 drops of topical proparacaine hydrochloride (0.5%). Prior to implant or sham treatment, eyes received one drop of 10% phenylephrine and 1% tropicamide. 5% betadine solution was used to clean the eye and surrounding area. Group 1 underwent a sham injection procedure, while Group 2 and Group 3 were administered 2× and 3× 30 G × 6 mm Dex-TEG-Dex implants via intravitreal injection, respectively. […] IOP measurements were performed on both eyes at baseline and designated timepoints up to 52 weeks thereafter using a pneumotonometer. Eyes received 1–2 drops of topical proparacaine hydrochloride (0.5%) prior to IOP measurements, and measurements were taken at approximately the same time of day (±2 h). Wide angle infrared (IR) imaging was performed at baseline and at designated timepoints using a Heidelberg Spectralis® imaging platform. Prior to imaging, eyes were dilated with 1 drop each of 10% phenylephrine and 1% tropicamide. […] Animals were euthanized via pentobarbital overdose (150 mg/kg, intravenous).
Histopathology. […] Eyes were then transferred to 70% ethanol. Eyes were embedded in paraffin and sectioned using a microtome. Five sections were generated from each eye and stained with hematoxylin and eosin (H&E). All stained sections were microscopically evaluated by an ACVP veterinary pathologist.

`C[C@@H]1C[C@H]2[C@@H]3CCC4=CC(=O)C=C[C@]4(C)[C@@]3(F)[C@@H](O)C[C@]2(C)[C@@]1(O)C(=O)COC(=O)OCCOCCOCCOC(=O)OCC(=O)[C@@]1(O)[C@H](C)C[C@H]2[C@@H]3CCC4=CC(=O)C=C[C@]4(C)[C@@]3(F)[C@@H](O)C[C@@]21C` [Dex-TEG-Dex]: the “crystallinity after shelf-life storage” value in data set [1] is “no evidence of crystallinity”. Further, the “time at which free Dex fell below limits of detection” value in data set [2] (female, New Zealand White) was found to be 14 months. Further, in data set [2], the “levels of dexamethasone in the aqueous humor” value is on record as “below the limit of quantification for most samples”. Moreover, the IR fundus images entry in data set [3] (two and three implant eyes, baseline and 3, 6, 9, 12 months) is “unremarkable”. In addition, in data set [3] (two or three 30 G × 6 mm implants intravitreally, 12 months), the tolerability entry is recorded as “well tolerated”. Further, the histopathology findings result in data set [3] (two or three 30 G × 6 mm implants, H&E) is reported as “no microscopic or macroscopic findings”.
